Converted amounts (≈) assume the structure as drawn. Each block holds one compound with its values, some of them ahead of it.
Columns and labels:
Experiment in all cases: In vitro antibacterial evaluation: minimum inhibitory concentration (MIC), broth dilution method
Assay type in all cases: cell-based
[1] = tested on: Enterococcus sp.; conditions: 18 hours at 35° C.
How it was run: (§1)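 Using Muller-Hinton II […] and an inoculum of 5×10^5 CFU/mL, antibiotic dilutions from 64 down to 0.06 μg/mL were tested following NCCLS M7-A2. The MIC is the lowest concentration inhibiting growth, including in methicillin-, penicillin- or vancomycin-resistant clinical isolates.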

[2] = tested on: Escherichia coli; conditions: 18 hours at 35° C.
How it was run: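 Susceptibility determined by NCCLS-recommended broth dilution (M7-A2), Muller-Hinton II […]. Concentration span 64-0.06 μg/mL, inoculum 5×10^5 CFU/mL. Isolates include strains resistant to methicillin, penicillin and/or vancomycin.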

[3] = tested on: Staphylococcus sp.; conditions: for MIC Staphylococcus haemolyticus (GC 4546): strain GC 4546; for MIC Coagulase Negative Staphylococcus (GC 4547): strain GC 4547; for MIC Coagulase Negative Staphylococcus (GC 4548): strain GC 4548; for MIC Coagulase Negative Staphylococcus (GC 4549): strain GC 4549; for MIC Coagulase Negative Staphylococcus (GC 4551): strain GC 4551
How it was run: as §1

[4] = tested on: Streptococcus sp.; conditions: 18 hours at 35° C.
How it was run: as §1

[5] = Enterococcus faecalis (ATCC 29212)
[6] = Enterococcus faecalis (GC 2242)
[7] = Enterococcus faecalis (GC 2691)
[8] = Enterococcus faecalis (GC 4552)
[9] = Enterococcus faecalis (GC 4553)
[10] = Enterococcus faecalis (GC 6189)
[11] = broth dilution, inoculum 5×10^5 CFU/mL
[12] = Streptococcus agalactiae (GC 4564)
[13] = Streptococcus pneumoniae (ATCC 6301)
[14] = Streptococcus pneumoniae (GC 1894)
[15] = Streptococcus pneumoniae (GC 4565)
[16] = Streptococcus pyogenes (GC 4563)

MIC Enterococcus avium (GC 4558) ([1]; Enterococcus avium (GC 4558)): 8 µg/mL (≈ 4.81 µM)
MIC Enterococcus faecalis (ATCC 29212) [1, 5]: 64 µg/mL (≈ 38.5 µM)
MIC Enterococcus faecalis (GC 2242) [1, 6]: 64 µg/mL (≈ 38.5 µM)
MIC Enterococcus faecalis (GC 2691) [1, 7]: 64 µg/mL (≈ 38.5 µM)
MIC Enterococcus faecalis (GC 4552) [1, 8]: 64 µg/mL (≈ 38.5 µM)
MIC Enterococcus faecalis (GC 4553) [1, 9]: 8 µg/mL (≈ 4.81 µM)
MIC Enterococcus faecalis (GC 6189) [1, 10]: 64 µg/mL (≈ 38.5 µM)
MIC Enterococcus faecium (GC 2243) ([1]; Enterococcus faecium (GC 2243)): 32 µg/mL (≈ 19.3 µM)
MIC Enterococcus faecium (GC 4556) ([1]; Enterococcus faecium (GC 4556)): 64 µg/mL (≈ 38.5 µM)
MIC Enterococcus faecium (GC 4557) ([1]; Enterococcus faecium (GC 4557)): 8 µg/mL (≈ 4.81 µM)
MIC Enterococcus avium (GC 4558) [1, 11]: 8 µg/mL (≈ 4.81 µM)
MIC Enterococcus faecalis (ATCC 29212) [1, 11]: 64 µg/mL (≈ 38.5 µM)
MIC Enterococcus faecalis (GC 2242) [1, 11]: 64 µg/mL (≈ 38.5 µM)
MIC Enterococcus faecalis (GC 2691) [1, 11]: 64 µg/mL (≈ 38.5 µM)
MIC Enterococcus faecalis (GC 4552) [1, 11]: 64 µg/mL (≈ 38.5 µM)
MIC Enterococcus faecalis (GC 4553) [1, 11]: 8 µg/mL (≈ 4.81 µM)
MIC Enterococcus faecalis (GC 6189) [1, 11]: 64 µg/mL (≈ 38.5 µM)
MIC Enterococcus faecium (GC 2243) [1, 11]: 32 µg/mL (≈ 19.3 µM)
MIC Enterococcus faecium (GC 4556) [1, 11]: 64 µg/mL (≈ 38.5 µM)
MIC Enterococcus faecium (GC 4557) [1, 11]: 8 µg/mL (≈ 4.81 µM)
MIC Escherichia coli (GC 4560) [2]: 8 µg/mL (≈ 4.81 µM)
MIC Coagulase Negative Staphylococcus (GC 4547) [3]: 32 µg/mL (≈ 19.3 µM)
MIC Coagulase Negative Staphylococcus (GC 4548) [3]: 4 µg/mL (≈ 2.41 µM)
MIC Coagulase Negative Staphylococcus (GC 4549) [3]: 32 µg/mL (≈ 19.3 µM)
MIC Coagulase Negative Staphylococcus (GC 4551) [3]: 8 µg/mL (≈ 4.81 µM)
MIC Streptococcus agalactiae (GC 4564) [4, 12]: 64 µg/mL (≈ 38.5 µM)
MIC Streptococcus pneumoniae (ATCC 6301) [4, 13]: 32 µg/mL (≈ 19.3 µM)
MIC Streptococcus pneumoniae (GC 1894) [4, 14]: 32 µg/mL (≈ 19.3 µM)
MIC Streptococcus pneumoniae (GC 4565) [4, 15]: 64 µg/mL (≈ 38.5 µM)
MIC Streptococcus pyogenes (GC 4563) [4, 16]: 32 µg/mL (≈ 19.3 µM)
MIC Streptococcus agalactiae (GC 4564) [4, 11]: 64 µg/mL (≈ 38.5 µM)
MIC Streptococcus pneumoniae (ATCC 6301) [4, 11]: 32 µg/mL (≈ 19.3 µM)
MIC Streptococcus pneumoniae (GC 1894) [4, 11]: 32 µg/mL (≈ 19.3 µM)
MIC Streptococcus pneumoniae (GC 4565) [4, 11]: 64 µg/mL (≈ 38.5 µM)
MIC Streptococcus pyogenes (GC 4563) [4, 11]: 32 µg/mL (≈ 19.3 µM)
SMILES: CC(c1ccccc1)C1NC(=O)CNC(=O)C(CO)NC(=O)C(C(O)C2CN(c3nc4ccccc4o3)C(=N)N2C2OC(CO)C(O)C(O)C2O)NC(=O)C(C(O)C2CNC(=Nc3nc4ccccc4o3)N2)NC(=O)C(Cc2ccc(OC3OC(CO)C(OC4OC5COC6(OC5C(O)C4O)C4CC5CC(C4)CC6C5)C(O)C3O)cc2)NC1=O (stereo not drawn) [Example 227, Di-N-(2-(1,3-benzoxazolyl)-cyclo[glycyl-β-methylphenylalanyl-O-[4-O-[4,6-O-(2-adamantylidene)hexopyranosyl]hexopyranosyl]tyrosyl-3-[2-iminoimidazolidin-4-yl]seryl-3-β-hexopyranosyl-2-iminoimidazolidin-4-yl]serylseryl]]
MIC Staphylococcus haemolyticus (GC 4546) [3]: 64 µg/mL (≈ 38.5 µM)

MIC Enterococcus avium (GC 4558) ([1]; Enterococcus avium (GC 4558)): 8 µg/mL (≈ 5.05 µM)
MIC Enterococcus faecalis (ATCC 29212) [1, 5]: 32 µg/mL (≈ 20.2 µM)
MIC Enterococcus faecalis (GC 2242) [1, 6]: 32 µg/mL (≈ 20.2 µM)
MIC Enterococcus faecalis (GC 2691) [1, 7]: 32 µg/mL (≈ 20.2 µM)
MIC Enterococcus faecalis (GC 3059) ([1]; Enterococcus faecalis (GC 3059)): 32 µg/mL (≈ 20.2 µM)
MIC Enterococcus faecalis (GC 4552) [1, 8]: 32 µg/mL (≈ 20.2 µM)
MIC Enterococcus faecalis (GC 4553) [1, 9]: 16 µg/mL (≈ 10.1 µM)
MIC Enterococcus faecalis (GC 4554) ([1]; Enterococcus faecalis (GC 4554)): 32 µg/mL (≈ 20.2 µM)
MIC Enterococcus faecalis (GC 6189) [1, 10]: 32 µg/mL (≈ 20.2 µM)
MIC Enterococcus faecium (GC 2243) ([1]; Enterococcus faecium (GC 2243)): 16 µg/mL (≈ 10.1 µM)
MIC Enterococcus faecium (GC 4556) ([1]; Enterococcus faecium (GC 4556)): 32 µg/mL (≈ 20.2 µM)
MIC Enterococcus faecium (GC 4557) ([1]; Enterococcus faecium (GC 4557)): 16 µg/mL (≈ 10.1 µM)
MIC Enterococcus avium (GC 4558) [1, 11]: 8 µg/mL (≈ 5.05 µM)
MIC Enterococcus faecalis (ATCC 29212) [1, 11]: 32 µg/mL (≈ 20.2 µM)
MIC Enterococcus faecalis (GC 2242) [1, 11]: 32 µg/mL (≈ 20.2 µM)
MIC Enterococcus faecalis (GC 2691) [1, 11]: 32 µg/mL (≈ 20.2 µM)
MIC Enterococcus faecalis (GC 3059) [1, 11]: 32 µg/mL (≈ 20.2 µM)
MIC Enterococcus faecalis (GC 4552) [1, 11]: 32 µg/mL (≈ 20.2 µM)
MIC Enterococcus faecalis (GC 4553) [1, 11]: 16 µg/mL (≈ 10.1 µM)
MIC Enterococcus faecalis (GC 4554) [1, 11]: 32 µg/mL (≈ 20.2 µM)
MIC Enterococcus faecalis (GC 6189) [1, 11]: 32 µg/mL (≈ 20.2 µM)
MIC Enterococcus faecium (GC 2243) [1, 11]: 16 µg/mL (≈ 10.1 µM)
MIC Enterococcus faecium (GC 4556) [1, 11]: 32 µg/mL (≈ 20.2 µM)
MIC Enterococcus faecium (GC 4557) [1, 11]: 16 µg/mL (≈ 10.1 µM)
MIC Escherichia coli (ATCC 25922) ([2]; Escherichia coli (ATCC 25922)): >64 µg/mL
MIC Escherichia coli (GC 4559) ([2]; Escherichia coli (GC 4559)): >64 µg/mL
MIC Escherichia coli (GC 4560) [2]: 16 µg/mL (≈ 10.1 µM)
MIC Staphylococcus aureus (ATCC 29213) ([3]; strain ATCC 29213): 32 µg/mL (≈ 20.2 µM)
MIC Staphylococcus aureus (GC 1131) ([3]; strain GC 1131): 32 µg/mL (≈ 20.2 µM)
MIC Staphylococcus aureus (GC 3051) ([3]; strain GC 3051): 32 µg/mL (≈ 20.2 µM)
MIC Staphylococcus aureus (GC 3053) ([3]; strain GC 3053): 32 µg/mL (≈ 20.2 µM)
MIC Staphylococcus aureus (GC 4541) ([3]; strain GC 4541): 32 µg/mL (≈ 20.2 µM)
MIC Staphylococcus aureus (GC 4542) ([3]; strain GC 4542): 32 µg/mL (≈ 20.2 µM)
MIC Staphylococcus aureus-SMITH (GC 4543) ([3]; strain GC 4543): 32 µg/mL (≈ 20.2 µM)
MIC Staphylococcus aureus (GC 4544) ([3]; strain GC 4544): 32 µg/mL (≈ 20.2 µM)
MIC Staphylococcus aureus (GC 4545) ([3]; strain GC 4545): 32 µg/mL (≈ 20.2 µM)
MIC Coagulase Negative Staphylococcus (GC 4547) [3]: 16 µg/mL (≈ 10.1 µM)
MIC Coagulase Negative Staphylococcus (GC 4548) [3]: 16 µg/mL (≈ 10.1 µM)
MIC Coagulase Negative Staphylococcus (GC 4549) [3]: 16 µg/mL (≈ 10.1 µM)
MIC Coagulase Negative Staphylococcus (GC 4551) [3]: 16 µg/mL (≈ 10.1 µM)
MIC Streptococcus agalactiae (GC 4564) [4, 12]: 16 µg/mL (≈ 10.1 µM)
MIC Streptococcus pneumoniae (ATCC 6301) [4, 13]: 8 µg/mL (≈ 5.05 µM)
MIC Streptococcus pneumoniae (GC 1894) [4, 14]: 8 µg/mL (≈ 5.05 µM)
MIC Streptococcus pneumoniae (GC 4565) [4, 15]: 8 µg/mL (≈ 5.05 µM)
MIC Streptococcus pyogenes (GC 4563) [4, 16]: 8 µg/mL (≈ 5.05 µM)
MIC Streptococcus agalactiae (GC 4564) [4, 11]: 16 µg/mL (≈ 10.1 µM)
MIC Streptococcus pneumoniae (ATCC 6301) [4, 11]: 8 µg/mL (≈ 5.05 µM)
MIC Streptococcus pneumoniae (GC 1894) [4, 11]: 8 µg/mL (≈ 5.05 µM)
MIC Streptococcus pneumoniae (GC 4565) [4, 11]: 8 µg/mL (≈ 5.05 µM)
MIC Streptococcus pyogenes (GC 4563) [4, 11]: 8 µg/mL (≈ 5.05 µM)
SMILES: CC(c1ccccc1)C1NC(=O)CNC(=O)C(CO)NC(=O)C(C(O)C2CN(c3ncccn3)C(=N)N2C2OC(CO)C(O)C(O)C2O)NC(=O)C(C(O)C2CNC(=Nc3ncccn3)N2)NC(=O)C(Cc2ccc(OC3OC(CO)C(OC4OC5COC6(OC5C(O)C4O)C4CC5CC(C4)CC6C5)C(O)C3O)cc2)NC1=O (stereo not drawn) [Example 228, Di-N-(2-(pyrimidinyl)-cyclo[glycyl-β-methylphenylalanyl-O-[4-O-[4,6-O-(2-adamantylidene)hexopyranosyl]hexopyranosyl]tyrosyl-3-[2-iminoimidazolidin-4-yl]seryl-3-β-hexopyranosyl-2-iminoimidazolidin-4-yl]serylseryl]]
MIC Staphylococcus haemolyticus (GC 4546) [3]: 16 µg/mL (≈ 10.1 µM)
